The values below come from US20210137990A1, “METHODS FOR EXP ANDING ADIPOSE-DERIVED STEM CELLS” (CELLECT BIOTHERAPEUTICS LTD., priority 2018, published 2021).

Entries after “also recorded” stand apart in the source; their conditions may differ. Residues, ends and D or L forms follow the SMILES beside them. *: point of attachment. Cbz = O=C(OCc1ccccc1)*; CH2F = FC*

Test [1] relates to ASCs. The test can be described thus: ASC proliferation with Fas-L and inhibitors for 4 days, cell counts. The test is classed as cell-based, human. The text has this:
(§1) The dual effect of Fas-L on the apoptosis and proliferation of ASCs, can be mediated solely by canonical Fas-L signaling or through two distinct pathways. To distinguish between these possibilities, ASCs were either left untreated, treated with Fas-L only or treated simultaneously with Fas-L and with the pan-caspase inhibitor […], for 4 days. Importantly, to better evaluate the apoptotic cue of Fas-L, a different Fas-L derivative (mega-Fas-L), which induces high rates of apoptosis in passage 3 ASCs, was used in the current experiments. Sub-G1 proportions and cell numbers were determined by PI cell-cycle flow cytometry analysis and standard cell counts respectively. The experiment was repeated 3 times using cells from 3 independent patients.
Accordingly, cultured Passage 2-4 ASCs were treated with a combination of mega Fas-L, Z-VAD-fmk, LY294002 (PI3K inhibitor), AZD6244 (ERK-1/2 inhibitor) and SP600125 (JNK inhibitor) for 4 days.
After 4 days, cells were removed from plates by trypsin and cells were counted using a standard cell counter. The experiment was repeated 3 times using cells from 3 independent patients.
To test the effects of inhibitors on proliferation of mature ASCs (P2 and P3 ASCs), cells were seeded into 24-well plates (10.000 cells/well) and allowed to attach and grow for 24 h. Then, medium was exchanged for fresh normal growth medium or growth medium supplemented with Fas-L or with Fas-L and one of the inhibitors. Cells were then cultured for 4 days.
At the end of the incubation period, adherent cells were trypsinized, collected and counted with a TC10 Automated Cell Counter (Bio-rad).

Test [2] concerns ASCs. Kind of test: ASC apoptosis with Fas-L and inhibitors for 4 days, sub-G1 by PI cell-cycle flow cytometry. It counts as cell-based, human. Particulars: Z-VAD-fmk added to mega-Fas-L.
Text: as §1
Cells were harvested and fixed with 70% ethanol/PBS, treated with RNaseA 0.4 mg/ml (Sigma) and stained with propidium iodide (PI) 0.1 mg/ml (Sigma).
All labeled cells were analyzed using a FACS Canto II flow cytometer (Becton Dickinson, San Jose, Calif., USA). At least 10.000 events were recorded. Data analysis was performed using the FlowJo software (Tree Star, Ashland, Oreg., USA).
Background: A flow cytometer gives signals particle by particle.

As for `COC(=O)C[C@H](NC(=O)[C@H](C)NC(=O)[C@@H](NC(=O)OCc1ccccc1)C(C)C)C(=O)CF` [Z-VAD-fmk] (Cbz-Val-Ala-Asp(OMe)-CH2F), the cell yield result with ASCs [1] (Fas-L and Z-VAD-fmk together, 4 days, vs untreated) is “doubled cell yield”. Also, the “Fas-L-induced ASC proliferation” value in the test with ASCs [1] (Z-VAD-fmk added to mega-Fas-L, 4 days) is “not affected; also recorded: without impacting; also recorded: minor to negligible effect”. In addition, the cell expansion result with ASCs [1] (Z-VAD-fmk only, 4 days) was “No such increased expansion”. For the same molecule, the “Fas-L-induced apoptosis of ASCs (sub-G1)” value with ASCs [2] was “considerably attenuated; also recorded: near-complete inhibition”.

In the case of `Cn1cnc2c(F)c(Nc3ccc(Br)cc3Cl)c(C(=O)NOCCO)cc21` [AZD6244], the “ASC counts compared to cells treated with Fas-L only” value in the test on ASCs [1] (P2-4 ASCs, mega Fas-L plus inhibitor, 4 days) was “reduced ASC counts”. Moreover, in the test with ASCs [1] (P2-4 ASCs, mega Fas-L, Z-VAD-fmk plus inhibitor, 4 days), the cell quantities result was “comparable to untreated control”. Besides, the “Fas-L-dependent proliferation of ASCs” value in the test on ASCs [1] (inhibitor added to Fas-L) was “could be inhibited”.
